Data taken from patent publication US20250352675A1, “CA-IX TARGETING FLUORESCENT PROBES” (BRACCO IMAGING S.P.A., priority 2022, published 2025).

Key:
[1] = tested on: HT-29 colorectal tumor; assay: In vivo optical imaging of HT-29 tumor bearing mice (tumor-to-background ratio); settings: 1 nmol/mouse intravenous, 24 hours after administration; tumor vs hind limb muscle
Method: HT-29 cells were collected and washed once with serum-free medium. Five million HT-29 cells were suspended in 0.1 mL serum-free medium and injected subcutaneously in the right flank of 5 weeks old mice. Tumor development was followed by caliper measurement twice a week, from 7 days after inoculation. Tumor volume was calculated according to the formula: (L*W2)/2, where L and W are the maximum length and width of the tumor.
Optical Imaging experiments on HT-29 tumor bearing animals were performed after administration of HF-1, as reference compound, and compounds 1, 2 and 3, all at a dose of 1 nmol/mouse in an administration volume of 0.1 mL (corresponding to about 5 mL/kg, considering a 20 g-mouse) at an injection rate of about 1 mL/min, by the IVIS Spectrum system when the tumor reached at least 200 mm^3 volume.
For each group, in vivo OI experiments were performed at 0.5, 1, 2, 3, 4, 6 and 24 hours after intravenous administration of the fluorescent compounds. During imaging experiments animals were maintained under gaseous anesthesia. Regions of interest (ROIs) were drawn on the tumor and on a reference background healthy region (hind limb muscle) of the mouse for each fluorescence image at every time point to evaluate signal intensity in the tissues (expressed as Average Radiant Efficiency). The ratio between the fluorescence signal in the tumor and in the background healthy tissue (tumor-to-background ratio, TBR) was then calculated to assess the contrast.
All the compounds of the invention and HF-1 were tested at a dose of 1 nmol/mouse.

[2] = Optical characterization (excitation/emission maxima, molar extinction coefficient); format: physicochemical; settings: in water
[3] = as above; format: physicochemical
Method: A dual-beam UV-VIS spectrophotometer (Lambda 40, Perkin Elmer) was used to determine the absorbance (Abs) of the compounds of the invention. Emission/excitation (Em/Ex) spectra were carried out on a spectrofluorometer (FluoroLog-3 1IHR-320, Horiba Jobin Yvon) equipped with an F-3018 integrating sphere accessory. The measurements were performed using an excitation wavelength at maximum absorbance of different dyes, and the sample was excited with a 450W Xenon Light Source. Detection was performed by photomultiplier tubes (PMT-NIR) cooled detector or by TBX-04 detector. Dye solutions were carefully prepared to have an absorbance lower than 0.1 (optical densities) to minimize re-absorption phenomena.
The compounds of the invention were characterized in terms of their optical properties in vitro in aqueous medium (i.e., water/PBS pH 7.4) and in a clinical chemistry control serum (Seronorm, Sero S A), mimicking the chemical composition and optical properties of human serum. All solutions were freshly prepared. In particular, the compounds of the invention are characterized by absorption maxima comprised in the range from about 750 nm to 780 nm.
The excitation and emission maxima in PBS and Seronorm and the molar extinction coefficient (E) in water of representative compounds of formula (I) are shown in Table I in comparison with the known CA-IX targeting fluorescent probe named Hypoxyfluor-1 (HF-1, for instance disclosed in Bioconjugate Chem 2018, 29, 3320-3331). […] Moreover, the extinction coefficients were higher than […] for all compounds.

[4] = target: T1, CA-IX (Homo sapiens, UniProt Q16790); assay: Cellular binding assessment by flow cytometry on CA-IX expressing HT-29 cells; settings: 1 hour 30 min on ice, read-out: CA-IX receptor affinity (KD, to HT-29 cells)
T1 construct: host or cells: HT-29 human colorectal adenocarcinoma cells
Method: Human colon adenocarcinoma HT-29 cells (ATCC) used for the cellular binding experiments were cultured in McCoy's 5A medium (Sigma-Aldrich), supplemented with 10% HyClone Fetal Clone III (Euroclone), 2 mM L-glutamine (Sigma-Aldrich), 100 IU/mL penicillin, 0.1 mg/mL streptomycin, 0.25 μg/mL amphotericin B (Antibiotic-Antimycotic solution, Life Technologies) and cells were grown at 37° C. in humidified atmosphere enriched with 5% CO2. DPBS without MgCl2 and CaCl2 (Sigma-Aldrich) was used for cell rinsing.
Indeed, by using the anti-human CA-IX antibody MAB2188 (R&D Systems) and the DAKO […], according to the instruction of the datasheet, HT-29 cells were estimated to express about 150,000 CA-IX molecules per cell. Thus, HT-29 cells were used to measure the binding of all compounds to CA-IX, expressed in its physiological environment at the cell-surface. Briefly, HT-29 cells were detached with StemPro® Accutase® Cell Dissociation Reagent (Life Technologies), collected in DPBS and counted. At least 2·10^5 cells were placed in 1.5 mL tubes on ice and resuspended in 50-100 μL of cold FACS buffer (eBioscience™ Flow Cytometry Staining Buffer, Invitrogen) containing scalar concentrations of compounds (compound 1: range 1-5 μM; compounds 2 and 3: range 0-20 μM). After incubation (1 hour and 30 min on ice in the dark), cells were rinsed 3 times in 300 μL of cold FACS buffer by centrifugation (5 min, 4° C., 350 RCF), discarding the supernatant. Cell pellets were then resuspended in 200 μL of cold FACS buffer (or in a suitable volume in order to obtain no more than 1000 recorded events per μL during FACS analysis) and analyzed with the flow cytometer Accuri™ C6 (BD Biosciences). The mean cell-associated fluorescence was plotted against concentration and the dissociation constant at equilibrium (Ko) was inferred by mathematical fitting with GraphPad Prism v.9 software, according to the following equation: […]
where Bmax is the maximum specific binding in the same units as Y. KD is the equilibrium dissociation constant, in the same units as X. NS is the slope of nonspecific binding in Y units divided by X units. Background is the amount of nonspecific binding with no added Compound.
All compounds were analyzed in at least three independent experiments. The calculated KD are summarized in Table III and compared with the one obtained for HF-1.

[5] = tested on: HT-29 tumor; assay: Ex vivo tumor-to-background ratio in excised HT-29 tumors; set-up: species or system mice; settings: 1 nmol/mouse, samples collected 24 hours after administration; tumor vs hind limb muscle
Method: The ex vivo biodistribution of the representative compounds 1, 2 and 3 and of the reference compound HF-1 (at 1 nmol/mouse) was evaluated in HT-29 excised tumors and tissues at the end of the in vivo OI sessions 24 hours post intravenous administration. At the end of the in vivo experiment, animals were euthanized by overdose of gaseous anesthesia followed by cervical dislocation. Tumor tissue, muscle, and other organs of interest were removed for ex vivo fluorescent signal measurements. The fluorescence signal intensity was measured by the IVIS Spectrum system. Regions of interest (ROIs) were drawn around each organ and tumor using the Living Image Software (PerkinElmer) and evaluating signal intensity in the tissues (expressed as Average Radiant Efficiency). The ratio between the fluorescence signal in the organs and tumor was then calculated to assess the contrast to hind limb muscle (representing the background).

molar extinction coefficient (ε) [2] [M⁻¹ cm⁻¹]	Max Em ([3]; PBS pH 7.4) [nm]	Max Ex ([3]; PBS pH 7.4) [nm]	Max Em ([3]; Seronorm) [nm]	Max Ex ([3]; Seronorm) [nm]	Kd [4] [µM]	SMILES	in vivo TBR (mean ± SD) [1]	ex vivo TBR ± SD, HT-29 tumor [5]
240000	783	752	791	768	0.068 ± 0.004	CC1(C)C(/C=C/C=C/C=C/C=C2/N(CCCCS(=O)(=O)O)c3ccc(C(=O)NC[C@H](O)[C@@H](O)[C@H](O)[C@H](O)CO)cc3C2(C)C)=[N+](CCCCS(=O)(=O)[O-])c2ccc(C(=O)NCCCCCCCC(=O)Nc3nnc(S(N)(=O)=O)s3)cc21 [Compound 1]	5.9 ± 1.2	16.4 ± 4.4
260000	784	754	788	768	0.054 ± 0.003	CC1(C)C(/C=C/C=C/C=C/C=C2/N(CCCCS(=O)(=O)O)c3ccc(S(=O)(=O)O)cc3C2(C)C)=[N+](CCCCS(=O)(=O)[O-])c2ccc(C(=O)NCCCCCCCC(=O)Nc3nnc(S(N)(=O)=O)s3)cc21 [Compound 2]	5.1 ± 1.9	15.2 ± 5.9
240000	802	776	810	792	0.062 ± 0.004	CC1(C)C(/C=C/C2=C(Oc3ccc(S(=O)(=O)O)cc3)C(=C/C=C3/N(CCCCS(=O)(=O)O)c4ccc(S(=O)(=O)O)cc4C3(C)C)/CCC2)=[N+](CCCCS(=O)(=O)[O-])c2ccc(C(=O)NCCCCCCCC(=O)Nc3nnc(S(N)(=O)=O)s3)cc21 [Compound 3]	2.2 ± 0.6	5.8 ± 2.2
